In ChEMBL document CHEMBL1201862, “PubChem BioAssay data set” (2004):
Active and inactive are the calls of the source.

Columns and labels:
[1] = HIV-1 AD8 envelope cell-cell fusion blockers – cherry-pick, dose response (AID 652062); type: functional, cell-based;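 also: luciferase signal from cell-cell fusion driven by HIV-1 clade B AD8 Env; potency is for inhibitors of fusion seen as a drop in luminescence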
[2] = blockers of HIV-1 envelope-mediated cell-cell fusion – cherry-pick, dose response (AID 652057); type: functional, cell-based
cells [3] = type: functional, cell-based
cells [4] = type: functional, cell-based; remark: listed apart in the source
H4 = test: Luminescence Cell-Based Dose Response HTS to Identify Activators of 5'UTR Stem-Loop Driven Prion Protein mRNA Translation in H4 Neuroglioblastoma Cells. [Related pubchem assays: 1829 (Project Summary), 1814 (Primary HTS)]; type: functional; conditions: Homo sapiens
[5] = Luminescence Cell-Based Dose Response HTS to Identify Activators of Luciferase Translation or Activity in H4 […] Cells. [Related pubchem assays: 1829 (Project Summary), 1814 (Primary HTS)]; type: functional
[6] = Luminescence Cell-Based Dose Confirmation HTS to Identify Activators of 5'UTR Stem-Loop Driven Alpha-Synuclein mRNA Translation in H4 Neuroglioblastoma Cells. [Related pubchem assays: 1829 (Project Summary), 1814 (Primary HTS)]; type: functional
[7] = Luminescence Cell-Based Dose Confirmation HTS to Identify Inhibitors of Platelet Dense Granule Release. [Related pubchem assays: 1663 (Primary HTS), 1678 (Summary of Project)]; type: functional
[8] = DRD fibroblast viability loss – cell-based, non-viral oncogenic, luminescence, dose response (AID 1934); type: functional; conditions: Homo sapiens
BJ [9] = test: BJ-TERT-LT-ST fibroblast viability loss – cell-based, RAS-independent, luminescence, dose response (AID 1935); type: functional; conditions: Homo sapiens;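 also: BJ fibroblasts immortalized with TERT plus LT and ST oncogenes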
BJ [10] = test: cells; type: functional, cell-based; conditions: Homo sapiens
[11] = biological target: Luciferin 4-monooxygenase (Photinus pyralis, UniProt P08659); test: inhibition of purified Photinus pyralis luciferase – biochemical, luminescence, dose response (AID 1891)
Chain of Luciferin 4-monooxygenase (P08659 whole entry): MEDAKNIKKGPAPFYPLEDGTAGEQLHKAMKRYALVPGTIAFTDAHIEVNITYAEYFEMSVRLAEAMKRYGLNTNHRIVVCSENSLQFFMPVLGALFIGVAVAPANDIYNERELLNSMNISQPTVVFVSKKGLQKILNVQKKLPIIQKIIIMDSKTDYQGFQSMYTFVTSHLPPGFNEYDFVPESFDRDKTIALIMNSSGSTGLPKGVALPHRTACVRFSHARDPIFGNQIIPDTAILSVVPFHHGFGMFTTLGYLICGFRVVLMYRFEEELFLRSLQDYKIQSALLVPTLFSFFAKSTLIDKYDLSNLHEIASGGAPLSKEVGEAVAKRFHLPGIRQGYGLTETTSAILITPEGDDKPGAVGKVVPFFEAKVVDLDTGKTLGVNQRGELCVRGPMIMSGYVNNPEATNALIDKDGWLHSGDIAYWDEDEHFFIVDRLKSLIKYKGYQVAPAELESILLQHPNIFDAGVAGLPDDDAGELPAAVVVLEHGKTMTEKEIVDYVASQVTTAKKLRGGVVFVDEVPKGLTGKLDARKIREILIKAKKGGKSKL

BJ [12] = test: BJ-TERT fibroblast viability loss – cell-based, RAS-independent, luminescence, dose response (AID 1933); type: functional; conditions: Homo sapiens
[13] = reduction of Shn3 3'UTR-driven luciferase in osteoblasts – cell-based, Clone20 osteoblasts, firefly luciferase, cherry-picked, dose response (AID 624132); type: functional;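 also: firefly luciferase luminescence from reporter carrying the Shn3 3'UTR in osteoblasts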
[14] = non-specific 3'UTR reporter inhibition in Clone20-Shn3RL – cell-based, Renilla luciferase, cherry-picked, counter-screen for Shn3 inhibitor project, dose response (AID 624133); type: functional
[15] = Luminescence Cell-Based Dose Retest to Confirm Inhibitors of Cancer Stem Cells. [Related pubchem assays (depositor defined):AID2717, AID2721]; type: functional; conditions: Homo sapiens
[16] = tested on: Streptococcus sp. 'group A'; test: Streptococcus pyogenes SK(-)GAS viability under kanamycin – luminescence, BacTiterGlo, confirmation, counter-screen for streptokinase expression inhibitor project, dose response (AID 1900); type: functional, organism-based
Streptokinase A = biological target: T1, Streptokinase A (Streptococcus pyogenes serotype M1, UniProt P10520); test: viability-normalized secreted streptokinase activity reduction – plasminogen activation absorbance, OD405, dose response (AID 1914); type: functional, Streptococcus pyogenes M1 GAS;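 also: secreted streptokinase activity via plasminogen activation per viability signal from cell pellet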
T1 sequence (P10520 whole entry): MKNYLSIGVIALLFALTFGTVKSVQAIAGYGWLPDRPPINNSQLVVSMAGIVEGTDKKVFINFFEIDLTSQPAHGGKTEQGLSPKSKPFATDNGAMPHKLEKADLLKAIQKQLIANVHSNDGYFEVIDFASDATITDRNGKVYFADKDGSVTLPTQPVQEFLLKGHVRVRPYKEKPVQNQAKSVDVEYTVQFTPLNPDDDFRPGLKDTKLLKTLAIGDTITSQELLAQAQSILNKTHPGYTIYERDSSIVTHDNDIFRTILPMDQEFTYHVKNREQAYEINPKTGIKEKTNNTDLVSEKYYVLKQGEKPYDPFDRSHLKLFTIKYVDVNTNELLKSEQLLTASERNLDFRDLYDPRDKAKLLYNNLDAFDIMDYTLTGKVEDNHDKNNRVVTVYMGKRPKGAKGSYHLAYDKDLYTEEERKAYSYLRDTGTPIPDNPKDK

Streptococcus = test: GAS UMAA2166 growth inhibition – luminescence, BacTiterGlo, counter-screen for streptokinase expression inhibitor project, dose response (AID 1915); type: functional, organism-based;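 also: potency for reduction of bacterial viability or growth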
Paired box protein Pax-8 = Paired box protein Pax-8 (Homo sapiens, UniProt Q06710); test: PAX8 transcriptional activity inhibition in RMG-I – RMG-I cells, luciferase, cherry-pick, dose response (AID 687027); type: functional, cell-based;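 also: luciferase reporter driven by Pax8 target thyroperoxidase promoter measured by SteadyGlo luminescence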
Chain of Paired box protein Pax-8 (Q06710 whole entry): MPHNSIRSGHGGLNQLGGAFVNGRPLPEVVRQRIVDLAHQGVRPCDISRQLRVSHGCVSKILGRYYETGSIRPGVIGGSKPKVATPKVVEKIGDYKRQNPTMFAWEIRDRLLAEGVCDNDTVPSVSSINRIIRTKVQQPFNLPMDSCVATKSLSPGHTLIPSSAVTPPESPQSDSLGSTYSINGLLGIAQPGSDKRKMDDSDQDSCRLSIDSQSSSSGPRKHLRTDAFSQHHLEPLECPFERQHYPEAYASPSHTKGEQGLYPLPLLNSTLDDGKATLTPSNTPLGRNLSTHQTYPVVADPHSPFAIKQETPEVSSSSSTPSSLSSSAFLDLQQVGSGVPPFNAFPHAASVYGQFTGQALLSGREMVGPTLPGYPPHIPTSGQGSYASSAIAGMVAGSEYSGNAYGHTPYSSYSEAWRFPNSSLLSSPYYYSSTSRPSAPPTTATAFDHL

[17] = luciferase reporter signal suppression in cells – H4 neuroglioma cells, luminescence, dose response (AID 1990); type: functional, cell-based
[18] = Luminescence Cell-Based Dose Response HTS to Identify Inhibitors of 5'UTR Stem-Loop Driven Prion Protein mRNA Translation in H4 Neuroglioblastoma Cells. [Related pubchem assays: 1827 (Project Summary), 1813 (Primary HTS)]; type: functional
[19] = alpha-synuclein stem-loop luciferase translation blockers – H4 neuroglioma cells, luminescence, confirmation (AID 1988); type: functional, cell-based
Cytochrome P450 2C19 = Cytochrome P450 2C19 (Homo sapiens, UniProt P33261); test: Cytochrome panel assay with activity outcomes. Panel member name: p450-cyp2c19 Compounds with AC50 equal or less than 10 uM are considered active; type: functional; conditions: read-out: AC50
Chain of Cytochrome P450 2C19 (P33261 whole entry): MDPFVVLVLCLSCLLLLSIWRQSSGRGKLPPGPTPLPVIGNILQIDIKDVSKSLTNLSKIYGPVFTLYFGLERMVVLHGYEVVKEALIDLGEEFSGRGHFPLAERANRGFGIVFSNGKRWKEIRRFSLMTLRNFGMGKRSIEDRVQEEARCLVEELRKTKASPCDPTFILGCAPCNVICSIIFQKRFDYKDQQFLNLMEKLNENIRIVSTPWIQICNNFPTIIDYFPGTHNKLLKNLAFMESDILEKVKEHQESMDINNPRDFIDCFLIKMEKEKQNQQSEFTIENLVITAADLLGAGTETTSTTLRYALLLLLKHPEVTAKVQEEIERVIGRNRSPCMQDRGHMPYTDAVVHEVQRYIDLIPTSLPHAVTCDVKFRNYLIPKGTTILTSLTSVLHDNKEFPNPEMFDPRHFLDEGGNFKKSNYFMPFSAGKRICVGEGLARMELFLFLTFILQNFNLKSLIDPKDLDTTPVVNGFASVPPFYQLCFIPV

INS1 = test: INS-1E survival protection against cytokine death – cell-based, luminescence, retest, dose response (AID 449756); type: functional; conditions: Rattus norvegicus;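 also: cell death triggered by IL-1 beta plus TNF-alpha plus IFN-gamma mixture; protective hits raise ATP signal compared with cytokine alone wells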
H9c2 = test: cells; type: functional, cell-based; conditions: Rattus norvegicus, H9c2, Myocardium
Cytochrome P450 2D6 = Cytochrome P450 2D6 (Homo sapiens, UniProt P10635);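 also: CYP2D6 member of a cytochrome P450 panel assay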
Chain of Cytochrome P450 2D6 (P10635 whole entry, the tested form may be a part): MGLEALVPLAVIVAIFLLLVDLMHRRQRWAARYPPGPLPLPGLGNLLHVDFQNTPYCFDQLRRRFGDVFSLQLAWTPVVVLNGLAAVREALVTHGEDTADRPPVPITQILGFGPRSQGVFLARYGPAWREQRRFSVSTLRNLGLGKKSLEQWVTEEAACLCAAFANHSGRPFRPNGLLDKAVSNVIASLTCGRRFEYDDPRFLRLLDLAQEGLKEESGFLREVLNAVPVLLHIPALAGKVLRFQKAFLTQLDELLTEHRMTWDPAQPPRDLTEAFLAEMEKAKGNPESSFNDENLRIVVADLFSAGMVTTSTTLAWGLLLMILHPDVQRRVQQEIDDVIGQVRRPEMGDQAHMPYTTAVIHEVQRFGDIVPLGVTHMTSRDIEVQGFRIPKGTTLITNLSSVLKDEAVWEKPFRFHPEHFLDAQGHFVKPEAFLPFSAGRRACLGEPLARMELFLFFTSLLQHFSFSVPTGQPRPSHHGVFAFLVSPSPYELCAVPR

[20] = biological target: T2, RNA-binding protein pos-1 (Caenorhabditis elegans, UniProt G5EF15); test: disruptors of C. elegans POS-1 RNA interaction – biochemical, fluorescence polarization, dose response (AID 1964);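 also: purified POS-1 fused to maltose binding protein made in E. coli; potency of compounds blocking POS-1 binding to fluorescent RNA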
T2 sequence (G5EF15 whole entry): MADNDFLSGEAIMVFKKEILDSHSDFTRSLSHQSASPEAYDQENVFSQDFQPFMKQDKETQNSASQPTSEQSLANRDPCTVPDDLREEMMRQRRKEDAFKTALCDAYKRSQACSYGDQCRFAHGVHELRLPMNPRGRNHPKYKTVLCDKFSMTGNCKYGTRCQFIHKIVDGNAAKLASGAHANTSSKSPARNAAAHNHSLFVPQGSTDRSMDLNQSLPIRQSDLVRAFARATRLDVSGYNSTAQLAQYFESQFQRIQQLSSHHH

Protein skinhead-1 = biological target: T3, Protein skinhead-1 (Caenorhabditis elegans, UniProt P34707); type: functional
T3 sequence (P34707 whole entry): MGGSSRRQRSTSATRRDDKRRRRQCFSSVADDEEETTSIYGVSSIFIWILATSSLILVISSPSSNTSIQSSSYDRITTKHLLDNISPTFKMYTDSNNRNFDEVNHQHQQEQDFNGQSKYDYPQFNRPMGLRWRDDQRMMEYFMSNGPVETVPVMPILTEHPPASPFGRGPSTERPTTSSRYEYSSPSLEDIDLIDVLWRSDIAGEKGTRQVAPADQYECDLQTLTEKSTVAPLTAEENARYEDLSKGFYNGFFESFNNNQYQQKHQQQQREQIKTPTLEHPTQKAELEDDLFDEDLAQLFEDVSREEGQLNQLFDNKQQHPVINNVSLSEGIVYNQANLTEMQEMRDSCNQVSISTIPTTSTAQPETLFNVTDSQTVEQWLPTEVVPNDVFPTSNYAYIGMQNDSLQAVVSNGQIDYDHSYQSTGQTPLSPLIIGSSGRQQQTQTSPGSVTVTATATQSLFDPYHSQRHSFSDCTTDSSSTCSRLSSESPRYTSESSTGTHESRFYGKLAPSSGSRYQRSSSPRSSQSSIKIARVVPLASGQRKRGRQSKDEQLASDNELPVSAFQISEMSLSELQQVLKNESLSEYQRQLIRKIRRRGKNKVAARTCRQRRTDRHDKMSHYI

[21] = biological target: T4, Zinc finger protein mex-5 (Caenorhabditis elegans, UniProt Q9XUB2); test: potency of MEX-5 RNA-binding blockers – biochemical, C. elegans, fluorescence polarization, dose response (AID 1960)
T4 sequence (Q9XUB2 whole entry): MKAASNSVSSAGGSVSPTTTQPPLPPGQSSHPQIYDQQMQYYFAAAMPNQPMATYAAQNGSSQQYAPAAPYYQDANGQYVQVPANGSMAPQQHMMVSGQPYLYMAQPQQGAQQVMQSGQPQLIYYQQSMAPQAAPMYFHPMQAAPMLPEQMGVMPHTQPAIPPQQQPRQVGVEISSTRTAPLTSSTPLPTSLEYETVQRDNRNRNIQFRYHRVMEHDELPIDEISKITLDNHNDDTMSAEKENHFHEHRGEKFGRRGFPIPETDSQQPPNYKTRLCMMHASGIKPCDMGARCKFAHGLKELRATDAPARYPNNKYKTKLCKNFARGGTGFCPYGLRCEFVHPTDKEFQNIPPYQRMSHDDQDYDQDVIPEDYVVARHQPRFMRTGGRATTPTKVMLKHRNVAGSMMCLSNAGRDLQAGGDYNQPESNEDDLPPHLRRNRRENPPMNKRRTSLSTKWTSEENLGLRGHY

## Cc1ccc(S(=O)(=O)N(C)C[C@@H]2Oc3ccc(NC(=O)Cc4ccccc4)cc3CC(=O)N([C@H](C)CO)C[C@@H]2C)cc1
[1]
  AC50: 2.32 µM (active)
[2]
  AC50: < 0.26 µM (active)

## O=C(NCc1ccco1)c1cc(-c2cccs2)on1
Cells [3]
  EC50: > 350 µM (not active)
Cells [4]
  EC50: 150 µM (active)

## O=C(CC1SC(N2CCCC2)=NC1=O)Nc1ccc(C(=O)Nc2ncccc2O)cc1 (centres undefined)
Cells [3]
  EC50: > 350 µM (not active)
H4
  EC50: 12.3 µM (active)
[5]
  EC50: 11.1 µM (active)
Cells [4]
  EC50: 40.5 µM (active)
[6]
  EC50: 16.5 µM (active)

## O=C(CCCOc1ccc(Cl)cc1Cl)N/N=C/c1ccccc1O
Cells [3]
  EC50: > 350 µM (not active)
Cells [4]
  EC50: 11.8 µM (active)

## COc1ccc(C(=O)Nc2ccc(N3CCCC3)cc2)cc1OC
[7]
  EC50: 1.03 µM (active)
[8]
  EC50: 11.2 µM (active)
BJ [9]
  EC50: > 150 µM (not active)
BJ [10]
  EC50: 12.9 µM (active)
[11]
  EC50: 1.45 µM (active)
BJ [12]
  EC50: 14.9 µM (active)

## N#C/C(=C(\O)Cc1ccccc1)c1nc2ccccc2[nH]1
[13]
  AC50: > 70 µM (inactive)
[14]
  AC50: 23.2 µM (active)

## O=C(COc1ccc(-c2ccccc2)cc1)N/N=C/c1cc(O)ccc1Br
[15]
  AC50: 4.31 µM (active)
[16]
  EC50: 2.51 µM (active)
Streptokinase A
  EC50: 5.71 µM (active)
Streptococcus
  EC50: 4.98 µM (active)

## Cc1cccc2[nH]c3c(N4CC=C(c5ccc(F)cc5)CC4)ncnc3c12
[15]
  AC50: 6.48 µM (active)
[16]
  EC50: 2.84 µM (active)
Streptokinase A
  EC50: > 150 µM (not active)
Streptococcus
  EC50: 7.98 µM (active)

## Cc1ccc(/C=N/NC(=O)COc2ccccc2-c2ccccc2)cc1
[8]
  EC50: 0.657 µM (active)
BJ [9]
  EC50: 0.435 µM (inconclusive)
BJ [10]
  EC50: 0.605 µM (inconclusive)
BJ [12]
  EC50: 0.643 µM (inconclusive)
Paired box protein Pax-8
  AC50: 0.77 µM (active)

## Cc1ccc(C(=O)c2cc([N+](=O)[O-])ccc2N2CCOCC2)cc1
[8]
  EC50: 2.27 µM (active)
[17]
  EC50: 7.57 µM (active)
BJ [9]
  EC50: 3.32 µM (inconclusive)
BJ [10]
  EC50: 36.1 µM (inconclusive)
[18]
  EC50: 7.18 µM (active)
BJ [12]
  EC50: 5.09 µM (active)
[19]
  EC50: 1.73 µM (active)

## O=c1c2ccccc2oc2ccc(C#CC3(O)CCCCC3)cc12
[15]
  AC50: 6.5 µM (active)

## COc1ccccc1C(c1nnnn1CC1CCCO1)N1CCC(C(N)=O)CC1 (centres undefined)
Cells [3]
  EC50: > 350 µM (not active)
Cells [4]
  EC50: > 350 µM (not active)

## CCC(=O)N(C)C[C@@H]1Oc2cc(C#Cc3ccccc3)ccc2S(=O)(=O)N([C@@H](C)CO)C[C@H]1C
[1]
  AC50: 30.3 µM (active)
[2]
  AC50: 26.2 µM (active)

## Cc1nc(C(=O)Nc2ccc(Cl)cc2Cl)nn1-c1cc(OC(C)C)c(Cl)cc1Cl
Cytochrome P450 2C19
  AC50: 7.08 µM (inconclusive)
Cells [3]
  EC50: > 350 µM (not active)
Cells [4]
  EC50: > 350 µM (not active)

## COC(=O)c1ccc(COc2ccccc2/C=C(\C#N)C(=O)Nc2c(C)cccc2C)cc1
[15]
  AC50: 2.46 µM (active)
INS1
  AC50: 28.4 µM (active)

## COc1ccc(-c2cc(C(=O)OCC(=O)c3cccc([N+](=O)[O-])c3)c3cc(C)ccc3n2)cc1
[8]
  EC50: > 150 µM (not active)
BJ [9]
  EC50: > 150 µM (not active)
BJ [10]
  EC50: > 150 µM (not active)
BJ [12]
  EC50: > 150 µM (not active)

## COc1cccc(/C=N/Nc2nc3ccccc3n3cnnc23)c1
Cells [3]
  EC50: 191 µM (active)
[17]
  EC50: > 120 µM (not active)
H9c2
  IC50: > 79 µM (inactive)
[18]
  EC50: > 120 µM (not active)
[19]
  EC50: 15.6 µM (active)
Cells [4]
  EC50: > 350 µM (not active)

## CCCNc1c(F)c(F)c2c(C)c3ccccc3nc2c1F
Cytochrome P450 2D6
  AC50: 25.1 µM (inconclusive)
[20]
  EC50: > 300 µM (inconclusive)
Protein skinhead-1
  IC50: > 100 µM (inactive)
[21]
  EC50: 1.97 µM (active)

## Cc1ccc(N=C(S)Nc2ccc(C(C)C)cc2)cc1S(=O)(=O)N1CCCCCC1
[15]
  AC50: 2.1 µM (active)
[16]
  EC50: 13.2 µM (active)
Streptokinase A
  EC50: > 150 µM (not active)
Streptococcus
  EC50: > 150 µM (not active)

## COc1ccc(CCNC(=O)CSc2nc(-c3ccc(OC)c(OC)c3)ccc2C#N)cc1
Cells [3]
  EC50: > 350 µM (not active)
Cells [4]
  EC50: > 350 µM (not active)
